In patent publication US20230340012A1, “NATURAL AND SYNTHETIC COMPOUNDS FOR TREATING CANCER AND OTHER DISEASES” (PACIFIC ARROW LIMITED, priority 2009, published 2023) one finds Cytotoxicity activity data, which are given here for 15 molecules.

The data set relates to cancer cells. Briefly: MTT cytotoxic assay of esterification products (Cytotoxicity activity). Format: cell-based, human. The gist of the method:
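Cytotoxicity was read by MTT (Carmichael method, modified), with cells seeded 24 h ahead of treatment. Sixteen human cancer lines spanning bone, lung, bladder, ovary, colon, pancreas, prostate, skin, mouth, kidney, breast, liver, brain, leukemia and cervix were used. Test samples were acyl chloride esterification products of triterpenes, as mixtures or HPLC-purified compounds.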
In general terms: Formazan colour is commonly taken as a measure of viable cells.

[1] abbreviates: E4A esterified with 2-propenoyl chloride (Ppe = Propenoyl), compounds isolated with HPLC.
Setting [2] is: E4A esterified with Propionyl chloride (Ppi = Propionyl), compounds isolated with HPLC.
[3] abbreviates: E4A esterified with benzoyl chloride (Ben = benzoyl), compounds isolated with HPLC.
The mark [4] stands for this setting: esterification products of core compound E4A with (2E)-2-pentenoyl chloride (2pe = 2-pentenoyl).
The mark [5] stands for this setting: esterification products of core compound E4A with Butyryl chloride (But = Butyryl).
Setting [6] is: esterification products of core compound E4A with Decanoyl chloride (Dec = Decanoyl).
Setting [7] is: esterification products of core compound E4A with Isobutyryl chloride (Iso = Isobutyryl).
[8] abbreviates: esterification products of core compound E4A with Myristoyl chloride (Myr = Myristoyl).
The mark [9] stands for this setting: esterification products of core compound E4A with Octanoyl chloride (Oct = Octanoyl).
Setting [10] is: esterification products isolated with HPLC, graded strong / moderate / weak.

`CC1(C)CC2C3=CCC4C5(C)CCC(OC(=O)c6ccccc6)C(C)(CO)C5CCC4(C)C3(C)CC(O)C2(CO)C(OC(=O)c2ccccc2)C1OC(=O)c1ccccc1` (centres unmarked) [Compound K23]: the Cytotoxicity activity entry under setting [1] was “moderate”; the Cytotoxicity activity result under setting [2] is “moderate”; the Cytotoxicity activity entry under setting [3] is recorded as “moderate”; the Cytotoxicity activity result under setting [4] was “moderate”; the Cytotoxicity activity entry under setting [5] is listed as “moderate”; the Cytotoxicity activity result under setting [6] was “moderate”. Besides, the Cytotoxicity activity entry runs as follows: under setting [7], “moderate”; under setting [8], “moderate”; under setting [9], “moderate”.
For `CC1(C)CC2C3=CCC4C5(C)CCC(O)C(C)(CO)C5CCC4(C)C3(C)CC(O)C2(CO)C(OC(=O)c2ccccc2)C1OC(=O)c1ccccc1` (centres unmarked) [Compound K24], the Cytotoxicity activity result runs as follows: under setting [1], “moderate”; under setting [2], “moderate”; under setting [3], “moderate”; under setting [4], “moderate”; under setting [5], “moderate”; under setting [6], “moderate”. Further, the Cytotoxicity activity result is given as “moderate” under setting [7], “moderate” under setting [8] and “moderate” under setting [9].
Turning to `CC1(C)CC2C3=CCC4C5(C)CCC(O)C(C)(CO)C5CCC4(C)C3(C)CC(O)C2(COC(=O)c2ccccc2)C(O)C1OC(=O)c1ccccc1` (centres unmarked) [Compound K25], the Cytotoxicity activity entry is, setting by setting: under setting [1], “moderate”; under setting [2], “moderate”; under setting [3], “moderate”; under setting [4], “moderate”; under setting [5], “moderate”; under setting [6], “moderate”. Besides, the Cytotoxicity activity result under setting [7] was “moderate”, the Cytotoxicity activity result under setting [8] is “moderate” and the Cytotoxicity activity result under setting [9] is recorded as “moderate”.
`CC1(C)CC2C3=CCC4C5(C)CCC(O)C(C)(CO)C5CCC4(C)C3(C)CC(O)C2(COC(=O)c2ccccc2)C(OC(=O)c2ccccc2)C1O` (centres unmarked) [Compound K26]: the Cytotoxicity activity result is, setting by setting: under setting [1], “moderate”; under setting [2], “moderate”; under setting [3], “moderate”; under setting [4], “moderate”; under setting [5], “moderate”; under setting [6], “moderate”. The Cytotoxicity activity entry is recorded as “moderate” under setting [7], “moderate” under setting [8] and “moderate” under setting [9].
`CC1(C)CC2C3=CCC4C5(C)CCC(OC(=O)c6ccccc6)C(C)(CO)C5CCC4(C)C3(C)CC(O)C2(COC(=O)c2ccccc2)C(O)C1O` (centres unmarked) [Compound K27]: the Cytotoxicity activity entry was “moderate” under setting [1]; “moderate” under setting [2]; “moderate” under setting [3]; “moderate” under setting [4]; “moderate” under setting [5]; “moderate” under setting [6]. Moreover, the Cytotoxicity activity entry by setting is: under setting [7], “moderate”; under setting [8], “moderate”; under setting [9], “moderate”.
In the case of `CC1(C)CC2C3=CCC4C5(C)CCC(O)C(C)(CO)C5CCC4(C)C3(C)CC(OC(=O)c3ccccc3)C2(COC(=O)c2ccccc2)C(O)C1O` (centres unmarked) [Compound K28], the Cytotoxicity activity result reads like this: under setting [1], “moderate”; under setting [2], “moderate”; under setting [3], “moderate”; under setting [4], “moderate”; under setting [5], “moderate”; under setting [6], “moderate”. Further, the Cytotoxicity activity result reads like this: under setting [7], “moderate”; under setting [8], “moderate”; under setting [9], “moderate”.
For `CC1(C)CC2C3=CCC4C5(C)CCC(O)C(C)(COC(=O)c6ccccc6)C5CCC4(C)C3(C)CC(O)C2(CO)C(O)C1OC(=O)c1ccccc1` (centres unmarked) [Compound K29], the Cytotoxicity activity result was “moderate” under setting [1]; “moderate” under setting [2]; “moderate” under setting [3]; “moderate” under setting [4]; “moderate” under setting [5]; “moderate” under setting [6]. For the same molecule, the Cytotoxicity activity result runs as follows: under setting [7], “moderate”; under setting [8], “moderate”; under setting [9], “moderate”.
For `CC1(C)CC2C3=CCC4C5(C)CCC(O)C(C)(COC(=O)c6ccccc6)C5CCC4(C)C3(C)CC(O)C2(CO)C(OC(=O)c2ccccc2)C1O` (centres unmarked) [Compound K30], the Cytotoxicity activity result is “moderate” under setting [1]; “moderate” under setting [2]; “moderate” under setting [3]; “moderate” under setting [4]; “moderate” under setting [5]; “moderate” under setting [6]. Besides, the Cytotoxicity activity result under setting [7] is “moderate”, the Cytotoxicity activity result under setting [8] is recorded as “moderate” and the Cytotoxicity activity entry under setting [9] is recorded as “moderate”.
For the molecule `CC1(C)CC2C3=CCC4C5(C)CCC(OC(=O)c6ccccc6)C(C)(COC(=O)c6ccccc6)C5CCC4(C)C3(C)CC(O)C2(CO)C(O)C1O` (centres unmarked) [Compound K31], the Cytotoxicity activity entry is, setting by setting: under setting [1], “moderate”; under setting [2], “moderate”; under setting [3], “moderate”; under setting [4], “moderate”; under setting [5], “moderate”; under setting [6], “moderate”. For the same molecule, the Cytotoxicity activity result under setting [7] is reported as “moderate”, the Cytotoxicity activity result under setting [8] was “moderate” and the Cytotoxicity activity result under setting [9] is recorded as “moderate”.
Regarding `CC1(C)CC2C3=CCC4C5(C)CCC(O)C(C)(COC(=O)c6ccccc6)C5CCC4(C)C3(C)CC(OC(=O)c3ccccc3)C2(CO)C(O)C1O` (centres unmarked) [Compound K32], the Cytotoxicity activity entry is “moderate” under setting [1]; “moderate” under setting [2]; “moderate” under setting [3]; “moderate” under setting [4]; “moderate” under setting [5]; “moderate” under setting [6]. The Cytotoxicity activity result by setting is: under setting [7], “moderate”; under setting [8], “moderate”; under setting [9], “moderate”.
Consider `C/C=C(\C)C(=O)OC[C@]1(C)C2CC[C@]3(C)C(CC=C4C5CC(C)(C)[C@@H](O)[C@H](O)[C@]5(COC(=O)C=C(C)C)[C@H](O)C[C@]43C)[C@@]2(C)CC[C@@H]1O` (stereo partly drawn) [E4A-Tig-Sen-1], for which the Cytotoxicity activity result (esterification products of E4A—Tig—N with senecioyl chloride) was “strong”.
For the molecule `CC=C(C)C(=O)OCC1(C)C(O)CCC2(C)C1CCC1(C)C2CC=C2C3CC(C)(C)C(O)C(O)C3(COC(C)=O)C(O)CC21C` (centres unmarked) [Tig—Acy—1], the Cytotoxicity activity entry under setting [10] is reported as “strong”.
Still for that read-out and setting: then `CC=C(C)C(=O)OCC1(C)C(O)CCC2(C)C1CCC1(C)C2CC=C2C3CC(C)(C)C(OC(C)=O)C(O)C3(COC(C)=O)C(O)CC21C` (centres unmarked) [Tig—Acy—2], with “moderate”; and `CC=C(C)C(=O)OCC1(C)C(O)CCC2(C)C1CCC1(C)C2CC=C2C3CC(C)(C)C(O)C(OC(C)=O)C3(COC(C)=O)C(O)CC21C` (centres unmarked) [Tig—Acy—3], with “moderate”.
The same measure, in the same setting: the value for `CC=C(C)C(=O)OCC1(C)C(OC(C)=O)CCC2(C)C1CCC1(C)C2CC=C2C3CC(C)(C)C(O)C(O)C3(COC(C)=O)C(O)CC21C` (centres unmarked) [Tig—Acy—4] was “moderate”.
